We go through 24 molecules from ChEMBL document CHEMBL3351832, “Design and synthesis of lactam-thiophene carboxylic acids as potent hepatitis C virus polymerase inhibitors” (Bioorg Med Chem Lett, 2014).

Series [1] in a line: Inhibition of purified Hepatitis C virus NS5B. Also noted: species or system Hepacivirus hominis.
The subject of series [2] is Hepatitis C virus. Nature of the series: Antiviral activity against Hepatitis C virus genotype 1b by cell-based replicon assay. It is filed as functional, Hepacivirus hominis. (In general: In antiviral work, replicon cells carry a viral genome segment that copies itself.)
The target of series [3] is T1, Nuclear receptor subfamily 1 group I member 2 (Homo sapiens, UniProt O75469).
T1 sequence (O75469 whole entry): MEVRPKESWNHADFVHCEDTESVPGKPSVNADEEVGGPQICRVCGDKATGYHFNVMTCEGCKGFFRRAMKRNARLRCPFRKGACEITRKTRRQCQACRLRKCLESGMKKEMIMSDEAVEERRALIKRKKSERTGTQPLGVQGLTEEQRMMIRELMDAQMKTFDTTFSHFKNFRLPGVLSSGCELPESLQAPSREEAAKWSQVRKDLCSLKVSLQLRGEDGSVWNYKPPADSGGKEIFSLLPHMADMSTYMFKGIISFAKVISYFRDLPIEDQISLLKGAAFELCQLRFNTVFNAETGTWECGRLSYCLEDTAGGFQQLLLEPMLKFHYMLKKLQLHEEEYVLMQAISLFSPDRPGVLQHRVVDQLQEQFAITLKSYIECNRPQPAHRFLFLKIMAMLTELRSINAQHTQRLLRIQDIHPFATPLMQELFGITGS
Nature of the series: Activation of PXR (unknown origin) at 10 uM by reporter gene assay relative to rifampicin. It is filed as ADME. Background: Reporter assays use an easily measured gene product as a stand-in for the process of interest.

Another series concerns the target Cytochrome P450 3A4 (Homo sapiens, UniProt P08684). The series can be described thus: Increase in CYP3A4-mediated testosterone metabolism in human hepatocytes at 10 uM relative to rifampicin. It is filed as ADME, cell-based, Hepatocyte.
The next series deals with Hepatocyte. The series can be described thus: Increase in CYP3A4 mRNA expression in human hepatocytes at 10 uM relative to rifampicin. It is filed as ADME, cell-based.
Series [4] in a line: Clearance in beagle dog at 0.3 mg/kg, iv. Also noted: dose 0.3 mg/kg, route intravenous. The format is ADME, organism-based, Canis lupus familiaris. To be noted: in vivo.
The nature of series [5]: Half life in beagle dog at 0.3 mg/kg, iv. More on the design: dose 0.3 mg/kg, route intravenous. The format is ADME, organism-based, Canis lupus familiaris. To be noted: in vivo.
Series [6] in a line: Volume of distribution at steady state in Sprague-Dawley rat at 1 mg/kg, iv. It is filed as ADME, organism-based. Also noted: dose 1 mg/kg, route intravenous. Particulars: in vivo, read-out: Vdss.
Series [7] can be described thus: Oral bioavailability in Sprague-Dawley rat at 5 mg/kg. The format is ADME, organism-based. To be noted: in vivo.
Series [8] in a line: Half life in Sprague-Dawley rat at 1 mg/kg, iv. Particulars: in vivo. More on the design: dose 1 mg/kg, route intravenous. The format is ADME, organism-based.
Series [9] is described as follows: AUC in beagle dog at 3 mg/kg, po. It is filed as ADME, organism-based, Canis lupus familiaris. Also noted: dose 3 mg/kg, route oral. To be noted: plasma.
Series [10] is described as follows: Clearance in Sprague-Dawley rat at 1 mg/kg, iv. Particulars: in vivo. It is filed as ADME, organism-based. More on the design: dose 1 mg/kg, route intravenous.
Series [11] in a line: AUC in Sprague-Dawley rat at 5 mg/kg, po. It is filed as ADME, organism-based. Also noted: dose 5 mg/kg, route oral. Particulars: plasma.
A short description of series [12]: AUC in beagle dog at 0.3 mg/kg, iv. Particulars: plasma. The format is ADME, organism-based, Canis lupus familiaris. More on the design: dose 0.3 mg/kg, route intravenous.
Series [13] can be described thus: Oral bioavailability in beagle dog at 3 mg/kg. The format is ADME, organism-based, Canis lupus familiaris. To be noted: in vivo.
Series [14] in a line: AUC in Sprague-Dawley rat at 1 mg/kg, iv. It is filed as ADME, organism-based. To be noted: plasma. Also noted: dose 1 mg/kg, route intravenous.
Series [15] can be described thus: Volume of distribution at steady state in beagle dog at 0.3 mg/kg, iv. More on the design: dose 0.3 mg/kg, route intravenous. The format is ADME, organism-based, Canis lupus familiaris. To be noted: in vivo, read-out: Vdss.
Series [16] deals with Hepatitis C virus. Nature of the series: Antiviral activity against Hepatitis C virus genotype 1a by cell-based replicon assay. To be noted: subtype 1a.
In series [17] the test system is Hepatitis C virus. The series can be described thus: Antiviral activity against Hepatitis C virus genotype 1b by cell-based replicon assay in presence of 40 % human serum.

Broadly, the IC50 is the concentration that inhibits the measured activity by half. A higher IC50 goes with weaker potency in that assay. The EC50 is the concentration at which the effect is half-maximal. The clearance is a measure of how efficiently the substance is removed, as volume per time. In general, half-life refers to the time in which the quantity being followed falls by half. Usually bioavailability stands for the share of a dose that reaches the circulation, judged against a reference dose that is usually intravenous. As a reminder, the AUC is the area under the concentration-time curve, a measure of exposure. A low value points to low exposure.

Chain of Cytochrome P450 3A4 (P08684 whole entry): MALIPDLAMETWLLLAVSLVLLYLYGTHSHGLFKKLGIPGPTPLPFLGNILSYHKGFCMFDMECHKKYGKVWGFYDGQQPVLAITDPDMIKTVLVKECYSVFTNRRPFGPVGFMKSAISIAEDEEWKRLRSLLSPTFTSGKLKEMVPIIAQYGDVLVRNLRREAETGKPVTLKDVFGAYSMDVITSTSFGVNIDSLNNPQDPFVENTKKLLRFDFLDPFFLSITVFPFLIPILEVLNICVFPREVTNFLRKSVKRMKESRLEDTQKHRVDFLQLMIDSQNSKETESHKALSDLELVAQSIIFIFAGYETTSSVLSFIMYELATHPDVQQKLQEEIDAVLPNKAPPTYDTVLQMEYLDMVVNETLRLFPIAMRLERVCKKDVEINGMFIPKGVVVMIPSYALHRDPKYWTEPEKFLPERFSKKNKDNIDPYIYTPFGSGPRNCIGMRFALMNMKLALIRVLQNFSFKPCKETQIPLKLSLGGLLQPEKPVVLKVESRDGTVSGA

Turning to `CC(C)N(c1cc(-c2ccccc2)sc1C(=O)O)C(=O)[C@H]1CC[C@H](C)CC1`, in series [1], the IC50 is 60 nM. In the series on Hepatitis C virus [2], this molecule gave a concentration giving a half-maximal response (EC50) of 270 nM.
With `CC(C)(C)C#Cc1cc(N2C(=O)CCC[C@H]2C2CCCCC2)c(C(=O)O)s1`, in series [1], the IC50 was found to be 10 nM. The response with Hepatitis C virus [2] was half-maximal at 12 nM (EC50). The molecule further came in with an Activity in series [3] of 141%.
In the case of `Cc1ccc(C2CCCCC2)n1-c1cc(-c2ccccc2)sc1C(=O)O`, the IC50 in series [1] turned out to be 10500 nM. The EC50 in the series on Hepatitis C virus [2] was greater than 33000 nM.
For the molecule `CC(C)(C)C#Cc1cc(N2C(=O)[C@](C)(CCCO)OC[C@H]2C2CCCCC2)c(C(=O)O)s1` (relative stereo), in series [1], half-maximal inhibition (IC50) required 4 nM. In the series with Hepatitis C virus [2], this molecule showed an EC50 of 25 nM. Also, the Activity in series [3] was found to be 8%.
On to `O=C(O)c1sc(-c2ccccc2)cc1N1C(=O)CCCC1C1CCCC1` (configuration not stated), for which the concentration for half-maximal inhibition (IC50) in [1] worked out at 720 nM. The same molecule came in with an EC50 in the series on Hepatitis C virus [2] of 3700 nM.
In series [1], `CC(C)(C)C#Cc1cc(N2C(=O)[C@@](C)(CCO)OC[C@H]2C2CCCCC2)c(C(=O)O)s1` (relative stereo) gave an IC50 of 2 nM. The same molecule came in with an EC50 in the series on Hepatitis C virus [2] of 3 nM. The molecule further gave an Activity in series [3] of 77%.
The molecule `CC(C)(C)C#Cc1cc(N2C(=O)COC[C@H]2C2CCCCC2)c(C(=O)O)s1` yielded an IC50 in [1] of 3 nM. This molecule yielded an EC50 in the series with Hepatitis C virus [2] of 17 nM. Moreover, the Activity stood at 87% in [3], 61% on Cytochrome P450 3A4 and 66% in the series on Hepatocyte.
In series [1], `CC(C)(C)C#Cc1cc(N2C(=O)[C@H](CCCO)OC[C@H]2C2CCCCC2)c(C(=O)O)s1` displayed an IC50 of 35 nM. The response in the series on Hepatitis C virus [2] was half-maximal at 83 nM (EC50).
Turning to `CC(C)(C)C#Cc1cc(N2C(=O)[C@@](C)(CCCO)OC[C@H]2C2CCCCC2)c(C(=O)O)s1` (relative stereo), the half-maximal inhibitory concentration (IC50) in series [1] was 2 nM. In the series on Hepatitis C virus [2], this molecule gave an EC50 of 11 nM. In series [3], this molecule returned an Activity of 34%.
Consider `CC(C)(C)C#Cc1cc(N2C(=O)[C@@H](CCCO)OC[C@H]2C2CCCCC2)c(C(=O)O)s1` (relative stereo), for which the clearance is 5.4 mL/min/kg in series [4] and 38 mL/min/kg in [10]. Besides, half-maximal inhibition in series [1] (IC50) required 2 nM. The half-life is 144 min in [5] and 66 min in series [8]. The figures for the Vd in [6] and in series [15] were 1.2 L/kg and 0.1 L/kg, respectively. Further, the EC50 in the series with Hepatitis C virus [2] worked out at 14 nM. The bioavailability in [7] was 43%; in [13] it was 12%. For the same molecule, the exposure (AUC) in series [9] was 2.92 µM·h; in series [11], 2.11 µM·h; in series [12], 2.34 µM·h; in [14], 0.984 µM·h. For the same molecule, the Activity came to 5% in [3] and 2% on Cytochrome P450 3A4.
As for `Cc1ccc([C@H]2CC[C@H](C)CC2)n1-c1cc(-c2ccccc2)sc1C(=O)O`, half-maximal inhibition in series [1] (IC50) was put at 1500 nM. The molecule further yielded an EC50 in the series on Hepatitis C virus [2] greater than 33000 nM.
`C[C@H](O)C[C@H]1OC[C@@H](C2CCCCC2)N(c2cc(C#CC(C)(C)C)sc2C(=O)O)C1=O` had an IC50 in series [1] of 2 nM. This molecule showed an EC50 with Hepatitis C virus [2] of 30 nM. This molecule showed an Activity in series [3] of 4%.
On the same counts, the results for `CC(C)(C)C#Cc1cc(N2C(=O)[C@](C)(CCO)OC[C@H]2C2CCCCC2)c(C(=O)O)s1` (relative stereo) are 6 nM, 20 nM and 29%.
In series [1], `CC(C)(C)C#Cc1cc(N2C(=O)[C@H](CCO)OC[C@H]2C2CCCCC2)c(C(=O)O)s1` (relative stereo) came in with a concentration for half-maximal inhibition (IC50) of 12 nM. Moreover, in the series with Hepatitis C virus [2], the EC50 was 66 nM.
Regarding `C[C@@H](O)C[C@H]1OC[C@@H](C2CCCCC2)N(c2cc(C#CC(C)(C)C)sc2C(=O)O)C1=O`, the clearance was found to be 7.7 mL/min/kg in series [4] and 14 mL/min/kg in series [10]. The molecule further returned an IC50 in series [1] of 3 nM. In addition, the half-life in [5] is 300 min; in [8], 312 min. Also, the values for the Vd in series [6] and in [15] were 3 L/kg and 0.7 L/kg, respectively. Also, the EC50 in the series on Hepatitis C virus [2] was found to be 8 nM; in the series with Hepatitis C virus [16], 11 nM; with Hepatitis C virus [17] it was 44 nM. Also, the bioavailability in series [7] was 77%; in series [13], 43%. In addition, the AUC in series [9] stood at 6.3 µM·h; in [11], 10.6 µM·h; in [12], 1.45 µM·h; in [14] it was 2.76 µM·h. In addition, the figures for the Activity (in [3]; on Cytochrome P450 3A4) were 9% and 2%, respectively.
For `O=C(O)c1sc(-c2ccccc2)cc1N1C(=O)CC[C@H]1C1CCCCC1`, the half-maximal inhibitory concentration (IC50) in series [1] is 120 nM. The molecule also registered an EC50 in the series with Hepatitis C virus [2] of 390 nM.
For the molecule `CC(C)(C)C#Cc1cc(N2C(=O)[C@@H](CCO)OC[C@H]2C2CCCCC2)c(C(=O)O)s1` (relative stereo), the clearance amounted to 5.6 mL/min/kg in series [4] and 27 mL/min/kg in series [10]. In series [1], this molecule came in with a concentration for half-maximal inhibition (IC50) of 2 nM. For the same molecule, the half-life is 228 min in series [5] and 120 min in series [8]. Also, the Vd amounted to 2.1 L/kg in [6] and 0.3 L/kg in [15]. Further, the midpoint of the response in the series on Hepatitis C virus [2], the EC50, lay at 7 nM. Further, the bioavailability in series [7] turned out to be 48%; in series [13], 27%. The AUC was found to be 5.68 µM·h in series [9], 3.37 µM·h in [11], 2.08 µM·h in [12] and 1.42 µM·h in series [14]. In addition, the Activity turned out to be 3% in series [3] and 5% on Cytochrome P450 3A4.
With `O=C(O)c1sc(-c2ccccc2)cc1N1C(=O)CCCC1C1CCOCC1` (configuration not stated), in series [1], the IC50 was greater than 10000 nM. Besides, the EC50 in the series on Hepatitis C virus [2] was greater than 33000 nM.
The like results for `O=C(O)c1sc(-c2ccccc2)cc1N1C(=O)CC[C@@H]1C1CCCCC1` were, in that order, greater than 10000 nM and greater than 33000 nM.
`O=C(O)c1sc(-c2ccccc2)cc1N1C(=O)CCC1C1CCCCC1` (configuration not stated) gave a concentration for half-maximal inhibition (IC50) in series [1] of 180 nM. Besides, it took 640 nM to reach a half-maximal effect in the series with Hepatitis C virus [2] (EC50).
`CC(C)(C)C#Cc1cc(N2C(=O)C(C)(C)OC[C@H]2C2CCCCC2)c(C(=O)O)s1` had an IC50 in series [1] of 2 nM. The EC50 with Hepatitis C virus [2] turned out to be 5 nM. The molecule further gave an Activity in series [3] of 145%.
In series [1], `O=C(O)c1sc(-c2ccccc2)cc1N1C(=O)CCCC1c1ccccc1` (configuration not stated) had an IC50 of 870 nM. Moreover, the EC50 with Hepatitis C virus [2] was found to be 5800 nM.
With `O=C(O)c1sc(-c2ccccc2)cc1N1C(=O)CCCC1C1CCCCC1` (configuration not stated), in series [1], the IC50 was 73 nM. This molecule also displayed an EC50 with Hepatitis C virus [2] of 330 nM.
The like results for `C[C@H]1CC[C@H](C2CCCC(=O)N2c2cc(-c3ccccc3)sc2C(=O)O)CC1` (some centres not stated) were, in that order, 740 nM and 11600 nM.
